Source: PubChem BioAssay (NCI)
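Values below derive from 48-hour exposures of cells grown in 96-well plates, with endpoints linearly interpolated between the two concentrations bracketing the appropriate inhibition level. TGI marks complete inhibition of growth.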

How the values were obtained:
Assay in all cases: DTP human tumour cell line panel, 48 h
LOX IMVI melanoma = system: LOX IMVI melanoma
T-47D breast = system: T-47D breast
NCI-H226 lung = system: NCI-H226 lung
HCT-116 colon = system: HCT-116 colon
UACC-257 melanoma = system: UACC-257 melanoma
UACC-62 melanoma = system: UACC-62 melanoma
HS 578T breast = system: HS 578T breast
MDA-MB-435 = system: MDA-MB-435
UO-31 renal = system: UO-31 renal
OVCAR-4 ovarian = system: OVCAR-4 ovarian
HCT-15 colon = system: HCT-15 colon
SNB-75 CNS = system: SNB-75 CNS
OVCAR-3 ovarian = system: OVCAR-3 ovarian
TK-10 renal = system: TK-10 renal
MALME-3M melanoma = system: MALME-3M melanoma
SR leukemia = system: SR leukemia
SW-620 colon = system: SW-620 colon
SF-539 CNS = system: SF-539 CNS
CCRF-CEM leukemia = system: CCRF-CEM leukemia
CAKI-1 renal = system: CAKI-1 renal
SK-MEL-5 melanoma = system: SK-MEL-5 melanoma
MDA-MB-231 breast = system: MDA-MB-231 breast
786-0 renal = system: 786-0 renal
HOP-92 NSCLC = system: HOP-92 NSCLC
SK-OV-3 ovarian = system: SK-OV-3 ovarian
BT-549 breast = system: BT-549 breast
HT29 colon = system: HT29 colon
MOLT-4 leukemia = system: MOLT-4 leukemia
KM12 colon = system: KM12 colon
A549 NSCLC = system: A549 NSCLC
EKVX NSCLC = system: EKVX NSCLC
NCI/ADR-RES ovarian = system: NCI/ADR-RES ovarian
NCI-H460 lung = system: NCI-H460 lung
OVCAR-5 ovarian = system: OVCAR-5 ovarian
SK-MEL-28 melanoma = system: SK-MEL-28 melanoma
SNB-19 CNS = system: SNB-19 CNS
IGROV1 ovarian = system: IGROV1 ovarian
U251 CNS = system: U251 CNS
COLO 205 colon = system: COLO 205 colon
NCI-H522 lung = system: NCI-H522 lung
OVCAR-8 ovarian = system: OVCAR-8 ovarian
MCF7 breast = system: MCF7 breast
SF-268 CNS = system: SF-268 CNS
RPMI-8226 leukemia = system: RPMI-8226 leukemia
K-562 leukemia = system: K-562 leukemia
SF-295 CNS = system: SF-295 CNS
HCC-2998 colon = system: HCC-2998 colon
MDA-N = system: MDA-N
PC-3 prostate = system: PC-3 prostate
A498 renal = system: A498 renal
HOP-62 NSCLC = system: HOP-62 NSCLC
NCI-H23 lung = system: NCI-H23 lung
DU-145 prostate = system: DU-145 prostate
SN12C renal = system: SN12C renal
HL-60(TB) leukemia = system: HL-60(TB) leukemia
SK-MEL-2 melanoma = system: SK-MEL-2 melanoma
RXF 393 renal = system: RXF 393 renal
ACHN renal = system: ACHN renal
M14 melanoma = system: M14 melanoma

CCOC(=O)/C=C(\C(=O)OCC)n1ccc(=O)n(Cc2cnnn2COCCOC(C)=O)c1=O
TGI (LOX IMVI melanoma): > 40.7 µM
TGI (T-47D breast): 27.5 µM
TGI (NCI-H226 lung): 43.2 µM
TGI (HCT-116 colon): 41.7 µM
TGI (UACC-257 melanoma): 30.8 µM
TGI (UACC-62 melanoma): 31 µM
TGI (HS 578T breast): 61.6 µM
TGI (MDA-MB-435): 22.5 µM
TGI (UO-31 renal): 30.5 µM
TGI (OVCAR-4 ovarian): 54.8 µM
TGI (HCT-15 colon): > 41.3 µM
TGI (SNB-75 CNS): 40.1 µM
TGI (OVCAR-3 ovarian): 25.1 µM
TGI (TK-10 renal): 12.6 µM
TGI (MALME-3M melanoma): 4.34 µM
TGI (SR leukemia): > 31.2 µM
TGI (SW-620 colon): 5.93 µM
TGI (SF-539 CNS): 5.66 µM
TGI (CCRF-CEM leukemia): 4.53 µM
TGI (CAKI-1 renal): 7.62 µM
TGI (SK-MEL-5 melanoma): 54.3 µM
TGI (MDA-MB-231 breast): 35 µM
TGI (786-0 renal): 15.3 µM
TGI (HOP-92 NSCLC): 2.16 µM
TGI (SK-OV-3 ovarian): > 100 µM
TGI (BT-549 breast): 22.3 µM
TGI (HT29 colon): 28.1 µM
TGI (MOLT-4 leukemia): 10.3 µM
TGI (KM12 colon): 32.1 µM
TGI (A549 NSCLC): 43.4 µM
TGI (EKVX NSCLC): 32.6 µM
TGI (NCI/ADR-RES ovarian): 58.7 µM
TGI (NCI-H460 lung): 34.1 µM
TGI (OVCAR-5 ovarian): 32 µM
TGI (SK-MEL-28 melanoma): 25.2 µM
TGI (SNB-19 CNS): > 66.4 µM
TGI (IGROV1 ovarian): 36.7 µM
TGI (U251 CNS): 32.6 µM
TGI (COLO 205 colon): 4.36 µM
TGI (NCI-H522 lung): 3.53 µM
TGI (OVCAR-8 ovarian): 27.3 µM
TGI (MCF7 breast): 21.4 µM
TGI (SF-268 CNS): 36.4 µM
TGI (RPMI-8226 leukemia): > 42 µM
TGI (K-562 leukemia): > 100 µM
TGI (SF-295 CNS): > 66.6 µM
TGI (HCC-2998 colon): 33.4 µM
TGI (MDA-N): 33 µM
TGI (PC-3 prostate): 33.7 µM
TGI (A498 renal): 41.3 µM
TGI (HOP-62 NSCLC): 38.5 µM
TGI (NCI-H23 lung): 33.1 µM
TGI (DU-145 prostate): 37.7 µM
TGI (SN12C renal): 36.2 µM
TGI (HL-60(TB) leukemia): 2.04 µM
TGI (SK-MEL-2 melanoma): 38.5 µM
TGI (RXF 393 renal): 14.5 µM
TGI (ACHN renal): 10.2 µM
TGI (M14 melanoma): 31.7 µM

N=[N+]=NC1C(O)C(CO)OC1n1cnc2c(N)ncnc21 (stereo not drawn)
TGI (LOX IMVI melanoma): > 83.5 µM
TGI (T-47D breast): > 100 µM
TGI (NCI-H226 lung): 97.4 µM
TGI (HCT-116 colon): > 100 µM
TGI (UACC-257 melanoma): > 100 µM
TGI (UACC-62 melanoma): > 100 µM
TGI (HS 578T breast): > 100 µM
TGI (MDA-MB-435): > 100 µM
TGI (UO-31 renal): > 100 µM
TGI (OVCAR-4 ovarian): > 100 µM
TGI (HCT-15 colon): > 100 µM
TGI (SNB-75 CNS): > 100 µM
TGI (OVCAR-3 ovarian): > 100 µM
TGI (TK-10 renal): > 100 µM
TGI (MALME-3M melanoma): > 100 µM
TGI (SR leukemia): 7 µM
TGI (SW-620 colon): > 100 µM
TGI (SF-539 CNS): > 76.2 µM
TGI (CCRF-CEM leukemia): > 29.8 µM
TGI (CAKI-1 renal): > 100 µM
TGI (SK-MEL-5 melanoma): > 100 µM
TGI (MDA-MB-231 breast): > 100 µM
TGI (786-0 renal): > 100 µM
TGI (HOP-92 NSCLC): > 100 µM
TGI (SK-OV-3 ovarian): > 100 µM
TGI (BT-549 breast): > 100 µM
TGI (HT29 colon): > 100 µM
TGI (MOLT-4 leukemia): > 22.4 µM
TGI (KM12 colon): > 100 µM
TGI (A549 NSCLC): > 100 µM
TGI (EKVX NSCLC): > 100 µM
TGI (NCI/ADR-RES ovarian): > 100 µM
TGI (NCI-H460 lung): > 100 µM
TGI (OVCAR-5 ovarian): > 100 µM
TGI (SK-MEL-28 melanoma): > 100 µM
TGI (SNB-19 CNS): > 100 µM
TGI (IGROV1 ovarian): > 100 µM
TGI (U251 CNS): > 100 µM
TGI (COLO 205 colon): > 100 µM
TGI (NCI-H522 lung): > 100 µM
TGI (OVCAR-8 ovarian): > 100 µM
TGI (MCF7 breast): > 100 µM
TGI (SF-268 CNS): > 100 µM
TGI (RPMI-8226 leukemia): > 100 µM
TGI (K-562 leukemia): > 100 µM
TGI (SF-295 CNS): > 100 µM
TGI (HCC-2998 colon): > 100 µM
TGI (MDA-N): > 100 µM
TGI (PC-3 prostate): > 100 µM
TGI (A498 renal): > 100 µM
TGI (HOP-62 NSCLC): > 100 µM
TGI (NCI-H23 lung): > 80 µM
TGI (DU-145 prostate): > 100 µM
TGI (SN12C renal): > 100 µM
TGI (HL-60(TB) leukemia): 6.44 µM
TGI (SK-MEL-2 melanoma): > 100 µM
TGI (RXF 393 renal): > 100 µM
TGI (ACHN renal): 52.6 µM
TGI (M14 melanoma): > 100 µM
